This note sets out measurements from ChEMBL document CHEMBL5512632, “Unlocking the potential of 1,4-naphthoquinones: A comprehensive review of their anticancer properties” (Eur J Med Chem, 2024).

The structures appear in SMILES notation. Bounds are passed on as bounds.

Test [1] relates to HCT-116. In words: Cytotoxicity against human HCT-116 cells assessed as reduction in cell viability incubated for 48 hrs by MTT reagent based spectrophotometric analysis. The format is functional. The following applies: HCT-116, 48 h. (Tetrazolium assays rely on reduction of a dye to a coloured formazan, in cell work by metabolically active cells.)
Test [2] relates to HepG2. In words: Cytotoxicity against human HepG2 cells assessed as reduction in cell viability incubated for 48 hrs by MTT reagent based spectrophotometric analysis. It is filed as functional. To be noted: HepG2, 48 h.
For test [3], the system named is SK-OV-3. Put plainly: Cytotoxicity against human SK-OV-3 cells assessed as reduction in cell viability incubated for 48 hrs by MTT reagent based spectrophotometric analysis. To be noted: SK-OV-3, 48 h. It is filed as functional.
The test system of test [4] is HepG2. In words: Antitumor activity against human HepG2 cells xenografted in BALB/c mouse assessed as reduction in tumor growth at 10 to 20 mg/kg,iv administrated once every 3 days for 3 weeks. Set-up: scale not given: the % may be the effect or the level left. The format is functional. To be noted: dose 10-20 mg/kg. Background: In xenograft studies the graft and the host belong to different species.

The nature of test [5]: Cytotoxicity against human OC3-IV2 cells incubated for 48 hrs by MTT reagent based spectrophotometric analysis. It is filed as functional, cell-based. The following applies: OC3-IV2, 48 h.
Test [6] deals with U-87 MG. In words: Cytotoxicity against human U87 cells incubated for 48 hrs by MTT reagent based spectrophotometric analysis. It is filed as functional, cell-based, U-87MG ATCC.
Test [7] relates to NCI-H1299. Put plainly: Cytotoxicity against human NCI-H1299 cells incubated for 48 hrs by MTT reagent based spectrophotometric analysis. The format is functional, cell-based. The following applies: NCI-H1299, 48 h.
Test [8] can be described thus: Antitumor activity against human OC3-IV2 cells xenografted in CB17-Prkdcscid/CrlNarl mouse assessed as reduction in tumor size at 2 mg/kg,ip administrated once every 3 days for 2 weeks. The format is functional. Set-up: scale not given: the % may be the effect or the level left.
Test [9] deals with PC-3. In words: Cytotoxicity against human PC-3 cells incubated for 48 hrs by MTT reagent based spectrophotometric analysis. It is filed as functional, cell-based. To be noted: PC-3, 48 h.
Test [10] concerns MDA-MB-453. Put plainly: Antiproliferative activity against human MDA-MB-453 cells incubated for 24 hrs by CCK-8 assay. It is filed as functional, cell-based. The following applies: MDA-MB-453, 24 h.
The test system of test [11] is MCF7. In words: Antiproliferative activity against human MCF7 cells incubated for 24 hrs by CCK-8 assay. The format is functional, cell-based. The following applies: MCF7, 24 h.
The test system of test [12] is MDA-MB-231. In words: Antiproliferative activity against human MDA-MB-231 cells incubated for 24 hrs by CCK-8 assay. The format is functional, cell-based. To be noted: MDA-MB-231, 24 h.
Test [13] in a line: Antiproliferative activity against human SUM1315MO2 cells incubated for 24 hrs by CCK-8 assay. To be noted: SUM1315MO2, 24 h. It is filed as functional, cell-based.
The test system of test [14] is MDA-MB-231. Put plainly: Antitumor activity against human MDA-MB-231 cells xenografted in mouse assessed as reduction in tumor volume. It is filed as functional.
Test [15] relates to HepG2. In words: Antiproliferative activity against human HepG2 cells incubated for 72 hrs by MTT assay. The format is functional, cell-based. The following applies: HepG2, 72 h.
In test [16] the test system is A549. Put plainly: Antiproliferative activity against human A549 cells incubated for 72 hrs by MTT assay. It is filed as functional, cell-based. To be noted: A549, 72 h.
Test [17] deals with HCT-116. In words: Antiproliferative activity against human HCT-116 cells incubated for 72 hrs by MTT assay. It is filed as functional, cell-based. To be noted: HCT-116, 72 h.
Test [18] is described as follows: Antitumor activity against mouse Lewis lung carcinoma cell line implanted in C57BL/6J mouse assessed as reduction in tumor volume at 6 mg/kg administration. The format is functional. Details: scale not given: the % may be the effect or the level left.
Test [19] relates to HL-60. In words: Cytotoxicity against human HL-60 cells assessed as reduction in cell viability incubated for 48 to 72 hrs by MTT assay. The format is functional, cell-based.
For test [20], the system named is MCF7. Put plainly: Antiproliferative activity against human MCF7 cells assessed as inhibition of cell growth incubated for 48 hrs by crystal violet staining based ELISA. The format is functional. To be noted: MCF7, 48 h. On the technique in general: ELISA stands for enzyme-linked immunosorbent assay.
Test [21] is described as follows: Cytotoxicity against human MCF7/LCC2 cells incubated for 7 days by MTT assay. The format is functional, cell-based. To be noted: MCF7/LCC2, 168 h.
Test [22] can be described thus: Cytotoxicity against human MCF7/LCC9 cells incubated for 7 days by MTT assay. It is filed as functional, cell-based. The following applies: MCF7, 168 h.
Test [23] has as its system MCF7. Put plainly: Cytotoxicity against human MCF7 cells incubated for 7 days by MTT assay. The format is functional, cell-based. To be noted: MCF7, 168 h.
Test [24] concerns MDA-MB-231. In words: Antiproliferative activity against human MDA-MB-231 cells assessed as inhibition of cell growth incubated for 48 hrs by crystal violet staining based ELISA. It is filed as functional. The following applies: MDA-MB-231, 48 h.
Test [25] concerns EL4. In words: Antitumor activity against mouse EL4 cells implanted in C57BL/6 mouse assessed as increase in survival of animal at 2 mg/kg,ip administrated for 5 consecutive days for 3 weeks. It is filed as functional.
The test system of test [26] is SCC-25. In words: Cytotoxicity against human SCC-25 cells incubated for 48 hrs by MTT assay. The format is functional, cell-based. The following applies: SCC-25, 48 h.
In test [27] the test system is SCC-9. Put plainly: Cytotoxicity against human SCC-9 cells incubated for 48 hrs by MTT assay. It is filed as functional, cell-based. The following applies: SCC-9, 48 h.
Test [28] relates to A253 cell line. Put plainly: Cytotoxicity against human A253 cell line incubated for 48 hrs by MTT assay. The format is functional, cell-based. To be noted: A253, 48 h.
Test [29] deals with SCC-25. Put plainly: Induction of apoptosis in human SCC-25 cells at 7 uM incubated for 48 hrs by annexin V-FITC/PI staining based flow cytometry relative to control. It is filed as functional.

Consider `CCCNC(=O)C(Cc1ccccc1)NC1=C/C(=N/O)c2ccccc2C1=O` (centres undefined), for which the IC50 (in general, the concentration needed to halve the response being measured) was determined as 0.18 µM in [1], 0.16 µM in [2] and 0.48 µM in test [3]. The Activity in test [4] was above 60%.
Take `CC1=CC(=O)c2cccc(O)c2C1=O`: the IC50 in [5] was found to be 5.4 µM; in test [6], 2.4 µM; in test [7], 1.5 µM; in test [9], 6 µM. The Activity in [8] was found to be 50%.
Consider `COC(=O)C(NC(=O)CCCCC1CCSC(c2ccc(OC)cc2)S1)S[C@H](CC=C(C)C)C1=CC(=O)c2c(O)ccc(O)c2C1=O` (some centres undefined), for which the IC50 in [10] came out at 6.94 µM; in [11] it was 6.45 µM; in [12], 3.49 µM; in [13], 10.5 µM. For the same compound, in [14], the Activity is on record as 200 mm3.
For `CC(C)=CC[C@H](OC(=O)C1CCOCC1)C1=CC(=O)c2c(O)ccc(O)c2C1=O`, the IC50 was 14.8 µM in [15], 1.67 µM in [16] and above 20 µM in test [17]. Besides, the Activity in test [18] was 63.45%.
As for `CC1=CC(=O)c2c(O)cccc2C1=O` [PLUMBAGIN], the IC50 in test [19] is 1.5 µM; in test [20] it was 1.5 µM; in [21], 1 µM; in [22], 1 µM; in test [23], 1 µM; in test [24], 1.5 µM. The Activity in test [25] came to 80%.
For the compound `Cc1cn([C@H]2C[C@H](N=[N+]=[N-])[C@@H](COC3=C(Cl)C(=O)c4ccccc4C3=O)O2)c(=O)[nH]c1=O`, the results for the IC50 in test [26], in [27] and in test [28] were 6.15 µM, 8 µM and 5.99 µM, respectively. In [29], the Activity was found to be 30%.
